Experimental data from PubChem BioAssay (NCI).
Several values for one entry are separate records, joined by “and”; a condition that tells them apart may be missing. Equal values may be shown once.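 Tested at 5 concentrations; 48 h exposure; 96-well plates; endpoints linearly interpolated, else capped at highest concentration. GI50 is the concentration that inhibits growth by half. Definition used: TGI = concentration required for complete inhibition of growth.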 Where a SMILES comes first, the peptide text is derived from it. [ ]: non-standard residue; d: D form.

Key:
Experiment in all cases: NCI-60 cell line screen, 48 h
CCRF-CEM leukemia = test system: CCRF-CEM leukemia
KM12 colon = test system: KM12 colon
M14 melanoma = test system: M14 melanoma
MDA-MB-435 = test system: MDA-MB-435
NCI/ADR-RES ovarian = test system: NCI/ADR-RES ovarian
OVCAR-5 ovarian = test system: OVCAR-5 ovarian
SK-MEL-2 melanoma = test system: SK-MEL-2 melanoma
SNB-75 CNS = test system: SNB-75 CNS
U251 CNS = test system: U251 CNS
MALME-3M melanoma = test system: MALME-3M melanoma

Row | SMILES | TGI (CCRF-CEM leukemia) | TGI (KM12 colon) | TGI (M14 melanoma) | TGI (MDA-MB-435) | TGI (NCI/ADR-RES ovarian) | TGI (OVCAR-5 ovarian) | TGI (SK-MEL-2 melanoma) | TGI (SNB-75 CNS) | TGI (U251 CNS) | TGI (MALME-3M melanoma) | GI50 (CCRF-CEM leukemia) | GI50 (SK-MEL-2 melanoma) | GI50 (SNB-75 CNS) | GI50 (U251 CNS)
1 | COC(=O)N[C@@H]1C[C@H]2CC[C@]1(O[Si](C(C)C)(C(C)C)C(C)C)C(=O)C2 | > 100 µM | 52.1 µM | 62.8 µM | 41.6 µM | 35.4 µM | 45.3 µM | 35.3 µM | 41.9 µM | – | – | – | – | – | –
2 | CC(=O)NC1C(OCc2ccccc2)OC(CO)C(O)C1OC(C)C(=O)NC(C(=O)NC(CCC(=O)NCCCNc1ccc([N+](=O)[O-])c2[nH]c3ccccc3c(=O)c12)C(N)=O)C(C)C (stereo not given) | > 100 µM | > 100 µM | > 100 µM | > 100 µM | > 100 µM | > 100 µM | > 100 µM | > 100 µM | > 100 µM | – | – | – | – | –
3 | NC1(c2cc3ccccc3s2)CCCCCC1 | 35.4 µM | 30.5 µM | 37.2 µM | 29.7 µM | 33.7 µM | 28.7 µM | 22.1 µM | 23.2 µM | 29.1 µM | – | – | – | – | –
4 | CCn1c(CCCc2nc3c([nH]2)c(=O)n(C)c(=O)n3C)nc2c1c(=O)n(C)c(=O)n2C | > 100 µM | > 100 µM | > 100 µM | > 100 µM | > 100 µM | > 100 µM | – | – | > 100 µM | > 100 µM | – | – | – | –
5 | CC(=O)C(CN1C(=O)c2ccccc2C1=O)C(C)=O | – | – | > 100 µM | > 100 µM | – | > 100 µM | > 100 µM | > 100 µM | > 100 µM | – | – | – | – | –
6 | COC(=O)/C1=C/C=C\C[C@@]2(C)CC(c3ccoc3)OC(=O)[C@@H]2CC[C@H]1C (stereo not given in full) | > 25 µM | > 25 µM | > 25 µM | – | > 25 µM | > 25 µM | > 25 µM | > 25 µM | > 25 µM | > 25 µM | – | – | – | –
7 | O=C(O)c1cc(NCc2cc(O)ccc2O)ccc1O | > 100 µM | > 100 µM | > 100 µM | > 100 µM | > 100 µM | > 100 µM | > 100 µM | > 100 µM | > 100 µM | – | – | – | – | –
8 | O=C1Sc2ccccc2C(=O)N2CCSC12 (stereo not given) | > 100 µM | > 100 µM | > 100 µM | – | – | > 100 µM | > 100 µM | – | > 100 µM | > 100 µM | – | – | – | –
9 | N#CC1=C(O)NC(O)=C(C#N)C1c1c(Cl)cccc1Cl | > 100 µM | 71.5 µM | > 100 µM | – | – | 98.5 µM | 52.3 µM | 48.4 µM | > 100 µM | > 100 µM | – | – | – | –
10 | O/N=C1\C/C(=N\O)c2c(Br)sc(Br)c21 | 37.3 µM | > 100 µM | > 100 µM | > 100 µM | > 100 µM | – | > 100 µM | 51.3 µM | > 100 µM | > 100 µM | – | – | – | –
11 | O=C1CCC2(O)c3ccccc3C2Cc2ccccc21 (stereo not given) | > 100 µM | > 100 µM | – | – | – | – | > 100 µM | > 100 µM | > 100 µM | > 100 µM | – | – | – | –
12 | N#Cc1ccc(-c2ccc(Cl)cc2)n(C2OC(CO)C(O)C(O)C2O)c1=S (stereo not given) | > 100 µM | > 100 µM | > 100 µM | – | – | > 100 µM | > 100 µM and 52.5 µM | > 100 µM | > 100 µM | > 100 µM | > 100 µM | > 100 µM and 10.6 µM | 43.1 µM and 19.8 µM | > 100 µM and 20 µM
13 | O=C1C(Cl)N(c2ccc([N+](=O)[O-])cc2)C1c1c[nH]c2ccccc12 (stereo not given) | > 100 µM | > 100 µM | > 100 µM | – | – | > 100 µM | > 100 µM | > 100 µM | > 100 µM | > 100 µM | – | – | – | –
14 | Clc1ccc(C2SCc3nc4ccccc4n32)cc1 (stereo not given) | 78.9 µM | – | 68.1 µM | – | – | – | 33 µM | 24.9 µM | 66.2 µM | 36.7 µM | – | – | – | –
15 | CCCCCCc1ccc(CCCCCCCC(=O)O)o1 | > 100 µM | > 100 µM | > 100 µM | > 100 µM | > 100 µM | > 100 µM | > 100 µM | > 100 µM | – | – | – | – | – | –
16 | Cc1cn(C2CC(O)C(Cn3nncc3Cn3nc(Br)c(=O)[nH]c3=O)O2)c(=O)[nH]c1=O (stereo not given) | > 100 µM | > 100 µM | > 100 µM | > 100 µM | > 100 µM | > 100 µM | > 100 µM | – | > 100 µM | > 100 µM | – | – | – | –
17 | CC(C)C[C@H](NC(=O)[C@H](CC(C)C)NC(=O)[C@@H](Cc1c[nH]c2ccccc12)NC(=O)[C@H](Cc1ccccc1)NC(=O)[C@@H](Cc1c[nH]c2ccccc12)NC(=O)[C@H](CCC(N)=O)NC(=O)[C@@H](CCC(N)=O)NC(=O)[C@@H]1CCCN1C(=O)[C@@H](CCCCN)NC(=O)[C@H]1CCCN1C(=O)[C@H](N)CCCN=C(N)N)C(N)=O (H-[dR][dP][dK]P[dQ]Q[dW]F[dW]LL-NH2) | > 100 µM | > 100 µM | – | – | > 100 µM | > 100 µM | > 100 µM | > 100 µM | > 93.2 µM | > 31.6 µM | – | – | – | –
18 | Cc1cc(C)[n+]2c(c1)C=CC2 | – | > 100 µM | > 100 µM | – | – | > 100 µM | 93.8 µM | 41.9 µM | > 100 µM | 8.57 µM | – | – | – | –
19 | O=S(=O)(O)c1cc(S(=O)(=O)O)c2cc(N=Nc3ccc(N=Nc4ccc(/C=C/c5ccc(N=[N+]([O-])c6ccc(/C=C/c7ccc(N=Nc8ccc(N=Nc9ccc%10cc(S(=O)(=O)O)cc(S(=O)(=O)O)c%10c9)cc8)cc7S(=O)(=O)O)c(S(=O)(=O)O)c6)cc5S(=O)(=O)O)c(S(=O)(=O)O)c4)cc3)ccc2c1 | > 100 µM | > 100 µM | – | – | > 100 µM | > 100 µM | > 100 µM | > 100 µM | > 100 µM | > 100 µM | – | – | – | –
20 | CN(C)C(=O)N1N[C@H](c2ccccc2)[C@@H]1c1ccccc1 | > 100 µM | > 100 µM | > 100 µM | > 100 µM | > 100 µM | – | > 100 µM | > 100 µM | > 100 µM | > 100 µM | – | – | – | –
21 | N#CCCN(CCCCN(CCC#N)C(=O)Nc1ccccc1)C(=O)Nc1ccccc1 | – | > 100 µM | > 100 µM | > 100 µM | > 100 µM | > 100 µM | > 100 µM | > 100 µM | > 100 µM | > 100 µM | – | – | – | –
22 | CCC[N+](C)(C)CCCNC(=O)c1c(O)c2ccccc2[nH]c1=O | > 100 µM | > 100 µM | – | > 100 µM | > 100 µM | > 100 µM | > 100 µM | > 100 µM | > 100 µM | > 100 µM | – | – | – | –
23 | CC(C)OC1=C(CC2(C)OCCO2)C(=O)C12OCCO2 | > 100 µM | > 100 µM | > 100 µM | > 100 µM | > 100 µM | > 100 µM | > 100 µM | > 100 µM | > 100 µM | – | – | – | – | –
